Data taken from patent publication US10472330B2, “Substituted triazenes protected from degradation by carboxylation of N1” (ARIZONA BOARD OF REGENTS ON BEHALF OF THE UNIVERSITY OF …, priority 2015, dated 2019).
Each block holds one compound with its values, some of them ahead of it.

Key:
[1] = target: Bovine serum albumin (BSA) (Bos taurus, UniProt P02769); assay: BSA labeling (gel fluorescence) after acidification; type: biochemical; conditions: 10 μM BSA, 10 μM compound after acidification at pH 2 for 0-60 min, then pH 8.8, 0° C., 1 hour
Procedure: To 10 μM solution of BSA in 100 mM Tris-Cl pH 8.8 was added 10 μM of Compound 53 after acidification (100 mM Tris-Cl pH 2) for 0, 1, 10, 30, or 60 minutes. […] The reaction was then allowed to proceed at 0° C. for 1 hour prior to loading onto a gel.
Bovine serum albumin (BSA) was used as a model protein to help assess the ability of Compound 53 to label proteins. BSA is known to bind to small molecules. Compound 53 was subjected to acid for varying times and then added to a solution of BSA at a pH sufficient to minimize background release of the diazonium ion (FIG. 11C). […] It is possible that this indicates a cleavage of the azobenzene linkage; however, the fluorescence could be quenched by reduction at several locations. To assess whether the standard azobenzene reduction is operative with these compounds, the resulting amino phenol may be oxidized and the ortho-iminoquinone may be trapped via established Diels-Alder chemistry. In some embodiments, molecules of the present invention can help distinguish between tyrosine and histidine modifications.

[2] = Resorcinol trapping of diazonium species (Sudan Orange G formation); type: physicochemical; conditions: excess resorcinol, pH 9 borate buffer
Source text: (§1) Referring to FIG. 5A, in some embodiments, triazabutadiene molecules of the present invention may readily photoisomerize to a more reactive Z-form. As an example, an aqueous solution of Compound A was irradiated with a simple hand-held UV lamp (“365 nm,” measured at 350 nm). Consumption of Compound A was observed after only a few hours. […] Without wishing to limit the present invention to any theory or mechanism, it was hypothesized that if a two-electron process were happening, then Compound A-Z would be more basic than Compound A-E. A 1.0 N NaOH solution of Compound A was treated with light. […] Benzene diazonium ions also absorb UV light to expel nitrogen and generate a benzene radical. In order to resolve if the initial cleavage undergoes a radical homolytic mechanism versus a two-electron heterolytic mechanism, a trapping experiment using resorcinol was conducted. (Resorcinol was chosen because it can serve a dual role as a radical scavenger and a trap benzene diazonium species that could be formed.) An excess of resorcinol was added to a pH 9 borate-buffered solution of Compound A and the mixture was irradiated with light. The known azobenzene, Sudan Orange G, was formed in a 65% yield (versus 4% for the non-irradiated reaction). Derivatives of Compound A were made to examine the effects of electronic perturbations on the light-induced degradation. […]

[3] = E/Z photoisomerization and thermal Z to E reversion; type: physicochemical; conditions: MeOD
[4] = Photo-induced degradation of triazabutadienes under hand-held UV lamp, followed by NMR; type: physicochemical
Procedure: (i) The reaction was monitored by comparing starting materials (A, C, D, and E) with product (B); (ii) Peak absorption and extinction coefficients for all of the compounds were excitable by the UV source used; (iii) Time-dependent conversion of compounds was measured by NMR integration.
Referring to FIG. 5A, in some embodiments, triazabutadiene molecules of the present invention may readily photoisomerize to a more reactive Z-form. As an example, an aqueous solution of Compound A was irradiated with a simple hand-held UV lamp (“365 nm,” measured at 350 nm). Consumption of Compound A was observed after only a few hours. […] Without wishing to limit the present invention to any theory or mechanism, it was hypothesized that if a two-electron process were happening, then Compound A-Z would be more basic than Compound A-E. A 1.0 N NaOH solution of Compound A was treated with light. […] Benzene diazonium ions also absorb UV light to expel nitrogen and generate a benzene radical. In order to resolve if the initial cleavage undergoes a radical homolytic mechanism versus a two-electron heterolytic mechanism, a trapping experiment using resorcinol was conducted. (Resorcinol was chosen because it can serve a dual role as a radical scavenger and a trap benzene diazonium species that could be formed.) An excess of resorcinol was added to a pH 9 borate-buffered solution of Compound A and the mixture was irradiated with light. The known azobenzene, Sudan Orange G, was formed in a 65% yield (versus 4% for the non-irradiated reaction). Derivatives of Compound A were made to examine the effects of electronic perturbations on the light-induced degradation. […] A buffered borate solution was chosen due to its alkaline nature and lack of complicating signals in the NMR experiment. Compounds C-E all have absorption spectra that are well within the range of the UV lamp (see FIG. 5A(ii)).

[5] = Stability of non-irradiated (dark) aqueous solutions; type: physicochemical
Source text: as §1

Solubility observations = type: physicochemical; conditions: organic solvents
Procedure: (§2) It is possible that Compound A may be useful as a photo-catalytic base in the context of organic reactions. […] As noted previously, Compound A is quite stable to an excess of acetic acid in DMSO, showing only 12% degradation over 14 hours at room temperature. […] To confirm that this was due to the acid, a solution of Compound A (in pure DMSO) was irradiated. After four hours of constant irradiation in acid-free DMSO, an E:Z ratio of nearly 50:50 was observed.
As another non-limiting example, an azide (e.g., NHS-azide) to N-heterocyclic carbene (NHC) route may be used to synthesize triazabutadiene molecules (e.g., see FIG. 6C). For example, as shown in Compound 4 of FIG. 6D, a triazabutadiene molecule was synthesized from dimethyl imidazole derived NHC and phenyl azide. […] This change was confirmed to coincide with diazonium formation by trapping the reactive species with resorcinol to provide known diazo dye Sudan Orange G. When the triazabutadiene molecule (Compound 4) was treated with the much less acidic acetic acid, the same product was obtained.
To render the triazabutadiene water-soluble, methyl imidazole was alkylated with propane sultone to provide the Zwitterionic NHC precursor Compound 5a (see FIG. 6E). […] Compound 6a was highly colored, so its pH dependence was studied using UV/vis. The reactions were not only pH-, but also scan-frequency dependent. Upon finding this, the stability of Compound 6a was studied in D2O in the dark using NMR. Even in the dark it was unstable, but not in the diazonium-forming way. Both Compound 6b and a more hindered mesityl (Mes) substituted Compound 6c (see FIG. 6E) were synthesized to stabilize what was initially considered to be a rearrangement pathway that could be blocked by steric repulsion. […] Dissolution in 0.1 N NaOH rendered all compounds stable (e.g., no detectable degradation after 24 hours in the dark).
To further examine the reactivity of this class of compounds, variants Compound 6d and Compound 6e were synthesized (see FIG. 6G). It was hypothesized that the p-methoxy and p-nitro analogs (Compound 6d and Compound 6e, respectively) would display different reactivity profiles. […] After collecting the precipitate and dissolving it in deuterated methanol, no change was observed from a sample of Compound 6e that had never been exposed to a buffered solution. […] It is possible that: 1) that the sodium salt of Compound 6e is much less soluble than the potassium salt; or 2) with different solvating ions present the sulfonate interacts with the electron-poor N2 nitrogen atom of the triazabutadiene to break conjugation and form an insoluble complex (this is backed by a reversible color change of the starting rust-red solid, to the light yellow precipitate). […]

[6] = Stability in DMSO with excess acetic acid, with or without light; type: physicochemical
Procedure: as §2

[7] = In situ real-time pH measurement upon UV irradiation; type: physicochemical; conditions: water, pH adjusted to 9 before irradiation, over several minutes
Procedure: In an effort to examine the rate order for the pH-increasing reaction more carefully, in situ, real-time pH measurements were acquired. Compound A was dissolved in water and the pH of the solution was adjusted to 9 such that it would not form Compound B in the absence of light. […] This spike was not at all consistent with the model of the pH increase being solely linked to the concentration of Compound B being generated.
A sample was irradiated and then the light was turned off once the pH of the solution started to increase noticeably. […] The experiment was repeated with increasing times of irradiation, and a saw-tooth pattern was obtained. The process was not completely reversible due to some degradation to Compound B. Indeed, triazabutadiene Compound A can serve a dual role of being a photo-masked base (see FIG. 4B(i)), and a base whose intrinsic functional group properties are altered photochemically (FIG. 4B(iii)).
Referring to FIG. 5A(iii), Compound C and Compound D were examined in an effort to find a base that was reversibly basic but also more resistant to degradation.

[8] = not pH dependent in the physiological range; cited from earlier work

Bovine serum albumin (BSA), sequence (P02769 25-607): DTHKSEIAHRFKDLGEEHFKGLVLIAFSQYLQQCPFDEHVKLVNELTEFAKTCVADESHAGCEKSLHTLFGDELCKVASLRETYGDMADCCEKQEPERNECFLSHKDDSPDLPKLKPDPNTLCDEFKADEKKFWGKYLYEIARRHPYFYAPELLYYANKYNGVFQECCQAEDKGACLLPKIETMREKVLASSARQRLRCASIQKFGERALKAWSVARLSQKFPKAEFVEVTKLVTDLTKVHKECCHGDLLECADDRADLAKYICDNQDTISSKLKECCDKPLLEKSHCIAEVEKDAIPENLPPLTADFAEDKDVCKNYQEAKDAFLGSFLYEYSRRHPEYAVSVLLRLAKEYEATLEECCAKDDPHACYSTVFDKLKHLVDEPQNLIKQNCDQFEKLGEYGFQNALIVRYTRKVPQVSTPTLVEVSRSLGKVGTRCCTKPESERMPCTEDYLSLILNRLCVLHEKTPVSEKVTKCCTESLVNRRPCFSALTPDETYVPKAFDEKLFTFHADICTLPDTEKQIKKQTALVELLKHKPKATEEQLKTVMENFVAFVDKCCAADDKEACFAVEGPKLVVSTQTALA

Labeling of BSA [1]: labeled in a pH dependent manner
SMILES: Cc1cc(C)c(-n2ccn(CCCS(=O)(=O)O)c2=NN=Nc2ccc3c(C(F)(F)F)cc(=O)oc3c2)c(C)c1 [Compound 53]

Sudan Orange G yield, irradiated ([2]; irradiated with light): 65% | Sudan Orange G yield, non-irradiated ([2]; non-irradiated reaction): 4% | Consumption of starting material under constant irradiation at pH 14 ([4]; 1.0 N NaOH, pH 14, 20 hours constant irradiation): near complete consumption | Consumption on UV irradiation (time) ([4]; aqueous solution, hand-held UV lamp (365 nm, measured at 350 nm)): a few hours | Stability at pH 14 in the dark ([5]; 1.0 N NaOH solution, pH 14, dark): stable for weeks | Stability of non-irradiated reaction ([5]; aqueous solution, similar conditions, no irradiation): stable for days | Solubility in organic solvents (Solubility observations): limited solubility in all but DMSO | Degradation with excess acetic acid in DMSO ([6]; 14 hours, room temperature, no light): 12% | Degradation with acetic acid in DMSO upon irradiation ([6]; irradiation with light, same time frame (14 hours)): completely fell apart | pH of solution upon exposure to 350 nm light [7]: ~10
SMILES: Cc1cc(C)c(-n2ccn(CCCS(=O)(=O)[O-])c2=NN=Nc2ccccc2)c(C)c1.[K+] [Compound A]
Rate of first-order thermal isomerization [3]: 3e-05 s⁻¹

SMILES: N#[N+]c1ccccc1 [benzenediazonium]
Half-life of first-order degradation to phenol [8]: ~4 h
